Results: article PMC6458995, “MAP4K4 Inhibition Promotes Survival of Human Stem Cell-Derived Cardiomyocytes and Reduces Infarct Size In Vivo” (Cell Stem Cell, 2019)

What was measured:
Test in all cases: Dundee kinase panel
Assay type in all cases: biochemical
Details in all cases: for remaining activity at 1 µM: read-out: residual activity
MAPKAP-K3 = target: T1, MAPKAP-K3 (Homo sapiens, UniProt Q16644)
T1 construct: lines 1-140) and Reaction Biology
Protocol: (§1) Compounds were screened at 1 μM. For key hits, pIC50 values were then determined by HTRF as above. […] Stability in mouse and human liver microsomes was determined by Cyprotex.

BRSK2 = target: T2, BRSK2 (Homo sapiens, UniProt Q8IWQ3)
T2 construct: lines 1-140) and Reaction Biology
T2 sequence (Q8IWQ3 1-736): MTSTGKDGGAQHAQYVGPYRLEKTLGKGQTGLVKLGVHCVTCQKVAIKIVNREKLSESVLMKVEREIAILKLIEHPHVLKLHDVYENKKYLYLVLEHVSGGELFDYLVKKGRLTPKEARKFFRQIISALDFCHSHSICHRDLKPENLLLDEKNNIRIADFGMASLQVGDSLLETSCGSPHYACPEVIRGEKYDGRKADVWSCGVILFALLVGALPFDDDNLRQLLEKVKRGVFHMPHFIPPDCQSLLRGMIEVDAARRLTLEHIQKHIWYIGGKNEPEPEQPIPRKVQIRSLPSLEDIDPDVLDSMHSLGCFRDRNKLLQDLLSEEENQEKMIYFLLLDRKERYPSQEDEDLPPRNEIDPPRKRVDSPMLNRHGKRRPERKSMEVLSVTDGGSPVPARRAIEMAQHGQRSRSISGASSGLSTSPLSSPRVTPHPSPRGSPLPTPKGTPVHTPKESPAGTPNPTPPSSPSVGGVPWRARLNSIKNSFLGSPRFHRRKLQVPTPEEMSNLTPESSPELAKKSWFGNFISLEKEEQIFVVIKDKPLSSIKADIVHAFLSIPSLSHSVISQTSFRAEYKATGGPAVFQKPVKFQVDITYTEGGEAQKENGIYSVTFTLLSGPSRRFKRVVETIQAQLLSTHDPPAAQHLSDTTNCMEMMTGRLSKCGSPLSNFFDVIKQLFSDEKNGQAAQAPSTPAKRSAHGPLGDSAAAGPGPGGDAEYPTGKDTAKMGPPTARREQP
Protocol: as §1

MLK1 = target: T3, MLK1 (Homo sapiens, UniProt P80192)
T3 construct: lines 1-140) and Reaction Biology
Protocol: as §1

MARK2 = target: T4, MARK2 (Homo sapiens, UniProt Q7KZI7)
T4 construct: lines 1-140) and Reaction Biology
Protocol: as §1

EPH-B1 = target: T5, EPH-B1 (Homo sapiens, UniProt P54762)
T5 construct: lines 1-140) and Reaction Biology
T5 sequence (P54762 18-984): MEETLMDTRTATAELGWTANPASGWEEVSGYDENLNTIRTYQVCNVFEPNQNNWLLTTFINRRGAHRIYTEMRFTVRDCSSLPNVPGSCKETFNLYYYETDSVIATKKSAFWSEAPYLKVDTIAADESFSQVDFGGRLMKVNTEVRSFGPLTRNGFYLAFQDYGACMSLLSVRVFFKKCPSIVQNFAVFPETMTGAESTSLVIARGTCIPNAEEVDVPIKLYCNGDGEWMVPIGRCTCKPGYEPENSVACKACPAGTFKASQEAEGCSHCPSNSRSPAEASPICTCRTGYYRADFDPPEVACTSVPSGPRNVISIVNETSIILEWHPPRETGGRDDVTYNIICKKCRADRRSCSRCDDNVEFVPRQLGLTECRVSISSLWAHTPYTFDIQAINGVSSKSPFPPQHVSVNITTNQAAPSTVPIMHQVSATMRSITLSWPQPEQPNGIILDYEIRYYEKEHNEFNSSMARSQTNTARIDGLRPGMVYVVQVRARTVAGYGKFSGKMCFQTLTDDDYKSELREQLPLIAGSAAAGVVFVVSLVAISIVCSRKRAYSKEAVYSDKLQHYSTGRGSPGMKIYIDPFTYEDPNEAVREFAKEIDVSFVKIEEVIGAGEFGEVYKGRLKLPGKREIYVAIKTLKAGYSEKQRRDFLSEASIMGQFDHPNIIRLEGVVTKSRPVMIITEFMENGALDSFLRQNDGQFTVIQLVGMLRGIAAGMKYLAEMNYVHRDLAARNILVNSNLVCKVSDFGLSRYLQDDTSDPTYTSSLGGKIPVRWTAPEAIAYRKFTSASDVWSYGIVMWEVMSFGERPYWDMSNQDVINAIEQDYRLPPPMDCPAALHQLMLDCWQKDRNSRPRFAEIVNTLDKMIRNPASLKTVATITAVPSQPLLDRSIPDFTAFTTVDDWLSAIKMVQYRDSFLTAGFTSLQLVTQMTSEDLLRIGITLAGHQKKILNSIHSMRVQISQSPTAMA
Protocol: as §1

SYK = target: T6, SYK (Homo sapiens, UniProt P43405)
T6 construct: lines 1-140) and Reaction Biology
Protocol: as §1

OSR1 = target: T7, OSR1 (Homo sapiens, UniProt O95747)
T7 construct: lines 1-140) and Reaction Biology
Protocol: as §1

PAK2 = target: T8, PAK2 (Homo sapiens, UniProt Q13177)
T8 construct: lines 1-140) and Reaction Biology
Protocol: as §1

MSK1 = target: T9, MSK1 (Homo sapiens, UniProt O75582)
T9 construct: lines 1-140) and Reaction Biology
Protocol: as §1

MST2 = target: T10, MST2 (Homo sapiens, UniProt Q13188)
T10 construct: lines 1-140) and Reaction Biology
T10 sequence (Q13188 1-491): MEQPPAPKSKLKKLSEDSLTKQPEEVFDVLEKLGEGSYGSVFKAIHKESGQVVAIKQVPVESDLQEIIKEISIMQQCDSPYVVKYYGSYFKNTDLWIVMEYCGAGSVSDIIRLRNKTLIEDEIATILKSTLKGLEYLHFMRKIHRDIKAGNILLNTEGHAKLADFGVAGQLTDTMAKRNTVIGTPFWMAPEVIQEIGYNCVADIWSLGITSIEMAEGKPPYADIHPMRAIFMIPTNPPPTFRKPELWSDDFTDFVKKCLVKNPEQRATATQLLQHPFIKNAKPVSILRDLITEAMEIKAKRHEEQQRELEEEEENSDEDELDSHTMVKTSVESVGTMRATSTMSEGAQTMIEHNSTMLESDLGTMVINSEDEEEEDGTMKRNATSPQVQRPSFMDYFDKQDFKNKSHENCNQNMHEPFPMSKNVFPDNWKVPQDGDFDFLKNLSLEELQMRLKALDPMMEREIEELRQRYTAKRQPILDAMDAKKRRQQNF
Protocol: as §1

STK33 = target: T11, STK33 (Homo sapiens, UniProt Q9BYT3)
T11 construct: lines 1-140) and Reaction Biology
Protocol: as §1

HIPK2 = target: T12, HIPK2 (Homo sapiens, UniProt Q9H2X6)
T12 construct: lines 1-140) and Reaction Biology
Protocol: as §1

T7 sequence (O95747 whole entry): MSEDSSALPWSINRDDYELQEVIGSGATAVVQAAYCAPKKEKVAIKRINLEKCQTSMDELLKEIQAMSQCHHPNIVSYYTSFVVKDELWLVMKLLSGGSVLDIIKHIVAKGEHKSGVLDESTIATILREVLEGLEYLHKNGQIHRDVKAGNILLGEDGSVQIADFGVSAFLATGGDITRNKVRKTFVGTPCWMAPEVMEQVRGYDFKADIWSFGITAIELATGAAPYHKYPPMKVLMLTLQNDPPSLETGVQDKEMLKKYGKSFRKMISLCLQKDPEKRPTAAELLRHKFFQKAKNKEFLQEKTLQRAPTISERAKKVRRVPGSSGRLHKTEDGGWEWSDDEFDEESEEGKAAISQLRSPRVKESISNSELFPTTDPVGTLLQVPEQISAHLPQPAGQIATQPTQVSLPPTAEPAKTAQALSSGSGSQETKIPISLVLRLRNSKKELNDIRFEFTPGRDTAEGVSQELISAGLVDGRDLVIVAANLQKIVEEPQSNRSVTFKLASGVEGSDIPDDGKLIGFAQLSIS
T3 sequence (P80192 whole entry): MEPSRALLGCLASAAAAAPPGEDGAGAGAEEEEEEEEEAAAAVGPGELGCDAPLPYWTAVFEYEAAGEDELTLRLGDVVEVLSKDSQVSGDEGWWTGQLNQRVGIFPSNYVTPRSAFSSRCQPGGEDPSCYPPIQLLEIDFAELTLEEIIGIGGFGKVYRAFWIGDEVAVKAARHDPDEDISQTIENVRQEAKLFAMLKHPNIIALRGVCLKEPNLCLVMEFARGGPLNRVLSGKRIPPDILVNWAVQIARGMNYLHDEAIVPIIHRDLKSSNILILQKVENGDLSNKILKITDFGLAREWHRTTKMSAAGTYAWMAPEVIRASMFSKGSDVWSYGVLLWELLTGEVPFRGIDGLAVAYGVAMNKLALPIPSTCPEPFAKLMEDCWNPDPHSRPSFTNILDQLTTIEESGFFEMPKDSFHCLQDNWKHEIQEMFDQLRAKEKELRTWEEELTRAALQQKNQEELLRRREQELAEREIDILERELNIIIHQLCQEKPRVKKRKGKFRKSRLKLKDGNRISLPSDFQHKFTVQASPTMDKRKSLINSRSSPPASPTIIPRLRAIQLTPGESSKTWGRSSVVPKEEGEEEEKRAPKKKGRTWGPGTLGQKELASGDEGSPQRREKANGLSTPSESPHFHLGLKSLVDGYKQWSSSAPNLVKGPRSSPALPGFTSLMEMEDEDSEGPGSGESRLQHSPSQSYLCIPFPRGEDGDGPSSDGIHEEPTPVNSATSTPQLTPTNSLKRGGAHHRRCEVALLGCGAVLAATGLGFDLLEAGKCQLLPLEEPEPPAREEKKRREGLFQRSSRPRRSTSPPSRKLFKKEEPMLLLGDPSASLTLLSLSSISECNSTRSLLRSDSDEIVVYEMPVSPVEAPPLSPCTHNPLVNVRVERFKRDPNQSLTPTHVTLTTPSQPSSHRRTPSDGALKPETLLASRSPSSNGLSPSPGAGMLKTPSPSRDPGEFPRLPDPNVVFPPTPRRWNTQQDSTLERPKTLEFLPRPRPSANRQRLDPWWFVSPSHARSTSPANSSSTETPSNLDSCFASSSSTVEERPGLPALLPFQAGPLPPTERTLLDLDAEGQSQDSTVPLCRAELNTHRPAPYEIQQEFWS
T11 sequence (Q9BYT3 whole entry): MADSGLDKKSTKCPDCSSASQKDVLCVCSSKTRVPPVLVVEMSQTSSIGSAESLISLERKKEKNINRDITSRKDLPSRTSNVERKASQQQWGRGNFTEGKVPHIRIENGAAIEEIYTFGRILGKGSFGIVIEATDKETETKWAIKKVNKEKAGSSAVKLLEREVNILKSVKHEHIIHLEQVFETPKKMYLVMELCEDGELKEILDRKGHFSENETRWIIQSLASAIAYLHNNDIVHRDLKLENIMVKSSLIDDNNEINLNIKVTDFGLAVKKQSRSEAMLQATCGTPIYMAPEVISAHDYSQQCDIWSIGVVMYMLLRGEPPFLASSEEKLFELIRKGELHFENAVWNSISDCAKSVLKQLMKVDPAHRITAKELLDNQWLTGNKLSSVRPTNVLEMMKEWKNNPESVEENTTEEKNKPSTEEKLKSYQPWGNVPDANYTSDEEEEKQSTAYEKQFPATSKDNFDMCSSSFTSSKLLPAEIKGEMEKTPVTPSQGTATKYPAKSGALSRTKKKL
T12 sequence (Q9H2X6 whole entry): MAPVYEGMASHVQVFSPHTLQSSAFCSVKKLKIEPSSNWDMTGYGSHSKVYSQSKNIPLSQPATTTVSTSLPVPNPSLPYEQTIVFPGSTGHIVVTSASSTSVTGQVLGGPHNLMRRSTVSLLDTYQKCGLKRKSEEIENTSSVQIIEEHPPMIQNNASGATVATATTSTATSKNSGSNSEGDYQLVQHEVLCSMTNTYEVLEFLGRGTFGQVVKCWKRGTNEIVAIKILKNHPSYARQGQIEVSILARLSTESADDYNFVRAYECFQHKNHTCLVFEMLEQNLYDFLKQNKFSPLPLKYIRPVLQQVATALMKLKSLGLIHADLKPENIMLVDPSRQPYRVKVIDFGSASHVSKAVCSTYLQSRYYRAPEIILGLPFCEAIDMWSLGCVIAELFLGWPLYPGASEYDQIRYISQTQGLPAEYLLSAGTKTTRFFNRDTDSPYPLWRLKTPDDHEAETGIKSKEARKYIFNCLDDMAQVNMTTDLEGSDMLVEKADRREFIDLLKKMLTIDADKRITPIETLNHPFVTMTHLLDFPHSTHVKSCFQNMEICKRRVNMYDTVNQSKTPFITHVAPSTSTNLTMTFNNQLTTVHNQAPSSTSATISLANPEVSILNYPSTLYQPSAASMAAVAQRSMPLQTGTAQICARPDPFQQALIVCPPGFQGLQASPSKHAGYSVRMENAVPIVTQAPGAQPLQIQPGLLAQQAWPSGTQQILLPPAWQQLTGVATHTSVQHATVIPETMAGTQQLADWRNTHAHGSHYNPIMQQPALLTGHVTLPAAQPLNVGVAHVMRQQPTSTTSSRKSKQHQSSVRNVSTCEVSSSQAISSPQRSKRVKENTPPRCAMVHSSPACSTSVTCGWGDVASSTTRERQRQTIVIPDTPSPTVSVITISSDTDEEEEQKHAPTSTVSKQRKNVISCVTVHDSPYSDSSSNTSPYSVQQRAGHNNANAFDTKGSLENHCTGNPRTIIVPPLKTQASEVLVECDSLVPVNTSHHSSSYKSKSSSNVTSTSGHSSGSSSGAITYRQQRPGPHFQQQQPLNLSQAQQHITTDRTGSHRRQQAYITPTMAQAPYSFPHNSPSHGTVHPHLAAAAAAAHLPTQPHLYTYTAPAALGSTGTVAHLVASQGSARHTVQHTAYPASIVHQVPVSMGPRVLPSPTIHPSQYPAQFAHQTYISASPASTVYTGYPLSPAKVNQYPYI
T1 sequence (Q16644 whole entry): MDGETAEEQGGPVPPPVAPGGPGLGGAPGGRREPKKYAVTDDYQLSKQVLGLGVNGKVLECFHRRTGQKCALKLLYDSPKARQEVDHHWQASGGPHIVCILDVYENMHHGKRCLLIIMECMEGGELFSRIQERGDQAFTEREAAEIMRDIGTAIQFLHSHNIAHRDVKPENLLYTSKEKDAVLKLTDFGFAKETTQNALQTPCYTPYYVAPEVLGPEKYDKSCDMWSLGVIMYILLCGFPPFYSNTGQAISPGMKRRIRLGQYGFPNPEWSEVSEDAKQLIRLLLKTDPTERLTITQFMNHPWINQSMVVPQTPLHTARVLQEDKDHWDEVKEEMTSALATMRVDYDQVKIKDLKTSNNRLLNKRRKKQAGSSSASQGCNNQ
T4 sequence (Q7KZI7 whole entry): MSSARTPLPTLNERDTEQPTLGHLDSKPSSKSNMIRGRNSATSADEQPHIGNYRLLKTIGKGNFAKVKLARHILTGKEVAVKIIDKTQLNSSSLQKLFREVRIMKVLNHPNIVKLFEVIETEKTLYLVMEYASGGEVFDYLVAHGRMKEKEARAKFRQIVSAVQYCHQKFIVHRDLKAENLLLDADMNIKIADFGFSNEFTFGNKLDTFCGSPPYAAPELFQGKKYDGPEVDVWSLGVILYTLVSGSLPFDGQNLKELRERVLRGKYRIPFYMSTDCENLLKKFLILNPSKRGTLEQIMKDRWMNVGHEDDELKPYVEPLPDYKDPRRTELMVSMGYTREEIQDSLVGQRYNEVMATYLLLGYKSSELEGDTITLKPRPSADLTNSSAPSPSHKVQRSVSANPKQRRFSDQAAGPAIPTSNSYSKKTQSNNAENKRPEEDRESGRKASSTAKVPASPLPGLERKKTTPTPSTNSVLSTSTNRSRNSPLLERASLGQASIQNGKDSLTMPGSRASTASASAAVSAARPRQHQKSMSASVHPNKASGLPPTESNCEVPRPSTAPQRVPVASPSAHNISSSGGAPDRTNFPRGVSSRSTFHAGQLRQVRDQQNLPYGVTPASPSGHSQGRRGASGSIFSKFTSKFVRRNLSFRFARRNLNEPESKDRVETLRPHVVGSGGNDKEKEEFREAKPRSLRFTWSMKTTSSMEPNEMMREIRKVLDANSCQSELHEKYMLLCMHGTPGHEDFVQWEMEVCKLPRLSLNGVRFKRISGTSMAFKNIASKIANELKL
T8 sequence (Q13177 whole entry): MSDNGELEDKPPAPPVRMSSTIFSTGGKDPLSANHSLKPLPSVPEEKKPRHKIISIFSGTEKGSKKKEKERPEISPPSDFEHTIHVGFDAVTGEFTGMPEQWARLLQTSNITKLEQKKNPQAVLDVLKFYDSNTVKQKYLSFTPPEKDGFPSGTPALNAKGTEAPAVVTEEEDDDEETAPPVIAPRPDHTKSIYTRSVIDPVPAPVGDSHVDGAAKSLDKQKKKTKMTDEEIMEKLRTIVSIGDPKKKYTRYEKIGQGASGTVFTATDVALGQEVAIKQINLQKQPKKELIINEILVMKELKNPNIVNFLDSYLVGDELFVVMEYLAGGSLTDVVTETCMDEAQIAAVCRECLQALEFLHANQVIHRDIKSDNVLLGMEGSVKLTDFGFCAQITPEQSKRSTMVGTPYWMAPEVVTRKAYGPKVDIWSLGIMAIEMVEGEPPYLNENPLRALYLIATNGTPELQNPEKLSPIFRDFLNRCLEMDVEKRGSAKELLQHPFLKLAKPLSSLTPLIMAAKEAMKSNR

SMILES	remaining activity at 1 µM (MAPKAP-K3) [%]	remaining activity at 1 µM (BRSK2) [%]	remaining activity at 1 µM (MLK1) [%]	remaining activity at 1 µM (MARK2) [%]	remaining activity at 1 µM (EPH-B1) [%]	remaining activity at 1 µM (SYK) [%]	remaining activity at 1 µM (OSR1) [%]	remaining activity at 1 µM (PAK2) [%]	remaining activity at 1 µM (MSK1) [%]	remaining activity at 1 µM (MST2) [%]	remaining activity at 1 µM (STK33) [%]	remaining activity at 1 µM (HIPK2) [%]	also measured
O=C1Cc2c([nH]c3ccc(Br)cc23)-c2ccccc2N1 [Kenpaullone]	83	35	99	35	94	87	52	96	90	63	92	103	
O=C1Nc2ccc(I)cc2/C1=C/c1cc(Br)c(O)c(Br)c1 [GW5074]	71	75	85	49	94	72	24	29	74	93	71	134	
Nc1ncc(C(=O)NC2CN(C(=O)C3CC3)C2)c2ccc(-c3cccc(F)c3)nc12 [GNE-495]													residual activity (MAPKAP-K3; 1 μM): 99%; residual activity (BRSK2; 1 μM): 77%; residual activity (MLK1; 1 μM): 25%; residual activity (MARK2; 1 μM): 42%; residual activity (EPH-B1; 1 μM): 99%; residual activity (SYK; 1 μM): 94%; residual activity (OSR1; 1 μM): 109%; residual activity (PAK2; 1 μM): 94%; residual activity (MSK1; 1 μM): 69%; residual activity (MST2; 1 μM): 76%; residual activity (STK33; 1 μM): 94%; residual activity (HIPK2; 1 μM): 96%
Oc1ncnc2c1c(-c1ccccc1)cn2-c1ccccc1 [F1386-0303, 5,7-diphenyl-7H-pyrrolo[2,3-d]pyrimidin-4-ol]	104	91	43	98	86	112	102	79	102	63	99	87	
COCCOc1ccc(-c2cn(-c3ccccc3)c3nc[nH]c(=O)c23)cc1 [DMX-5804, 5-[4-(2-methoxy-ethoxy)-phenyl]-7-phenyl-3,7-dihydro-pyrrolo[2,3-d]pyrimidin-4-one]	104	92	9	98	108	96	128	93	121	46	97	102	
